One assay relates to RARα protein. The assay can be described thus: Western blot of nuclear RARα in RARγ-deficient macrophages. Format: cell-based, mouse. The note with it: TTNPB treatment. The protocol: Nuclear protein extracts from tissues and macrophages were isolated according to the following method. Tissue samples and cells were first homogenized on ice and then lysed in lysis buffer (10 mM Tris [pH 7.5], 3 mM MgCl2, 10 mM NaCl, 0.5% NP-40) containing protease inhibitor cocktail. The nucleus was then pelleted by centrifugation for 10 min at 6,000× g, immediately resuspended in a nucleus suspension buffer (250 mM Tris [pH 8.0], 60 mM KCl, I mM dithiothrietol), and then rotated for 1 h. After centrifugation for 5 min at 6000× g, the solubilized nuclear proteins were separated by electrophoresis with a 4 to 15% gradient gel (Bio-Rad), transferred to nitrocellulose membrane (Trans-Blot transfer medium; Bio-Rad), and probed with anti-RARγ and anti-RARα antibodies (Santa Cruz Biotechnology, Santa Cruz, Calif.) and their respective horseradish peroxidase-conjugated secondary antibodies according to the manufacturer's recommendations. The intensities of the bands were quantified by using ImageQuant and normalized to (β-actin.
(In general: A western blot detects proteins with antibodies after separation by electrophoresis.)

For assay [1], the system named is ABCA1, ABCG1, SREBP-1c, apoE, LXRα, Cyp26 mRNA. Description: Quantitative real-time PCR of LXR target genes and Cyp26 in human monocyte-derived macrophages. Format: cell-based. To be noted: human macrophages. As for the experimental part: (§1) For quantification of mouse Cyp26 mRNA levels, each amplification mixture (25 μ) contained 62.5 ng of cDNA, 100 nM concentrations of reverse and forward primers, and 2.5 μl of 10× SYBR Green PCR master mix (Perkin-Elmer Life Sciences, Boston, Mass.). Quantitative expression values were extrapolated from standard curves for Cyp26 expression with 10-fold dilutions of cDNA (in triplicate). Each sample was normalized to β-actin that was deduced from TaqMan assays, triplicate results were averaged, and relative Cyp26 mRNA levels were determined. The primers mCyp26 F (5′-[…]-3′) and mCyp26 R (5′-[…]-3′) were used. RNA measurements from human monocyte-derived macrophages were performed as described previously (10, 44).
(In general: Quantitative PCR measures a nucleic acid by following its amplification.)

Assay [2] relates to SREBP-1c, FAS, ABCA1, Cyp26 mRNA in liver. The assay can be described thus: Gene expression in mouse liver after intraperitoneal injection. The note with it: mice, intraperitoneal 1 or 10 mg/kg, 24 h. Format: in vivo. As for the experimental part:
(A) RAR regulation of ABCA1 and SREBP-1c expression in mouse peritoneal macrophages. […] ABCA1 and SREBP-1c mRNA levels were determined by quantitative real-time reverse transcription-PCR and standardized against β-actin mRNA levels. The results are expressed as mean±the SEM (n=4 and 6). *, P<0.05; **, P<0.01 (compared to control). […] After 24 h, the mice were anesthetized, the livers were perfused, and the square lobes were removed for isolation of RNA. […] The results are expressed as mean±the SEM (n=5).
Total RNA was isolated from mouse peritoneal macrophages or ˜50 mg of mouse liver tissue by using the RNeasy Mini kit (Qiagen, Valencia, Calif.) or RNA-Bee reagent (Tel-Test, Inc., Friendswood, Tex.), respectively, according to the manufacturer's protocol. Real-time quantitative PCR assays were performed by using the Mx4000 Quantitative PCR System (Stratagene, La Jolla, Calif.). Briefly, 5 μg of total RNA was treated with RNase-free DNase I (Ambion, Austin, Tex.), and first-strand cDNA was synthesized with oligo(dT)12-18 by using a Superscript II RNase H^− reverse transcriptase reagent kit (Invitrogen) according to the manufacturer's protocol. For quantification of mouse ABCA1, ABCG1, SREBP-1c, LXRα, ApoE, and fatty acid synthase (FAS) mRNA levels, each amplification mixture contained 62.5 ng of cDNA, appropriate concentrations of forward and reverse primers and of dual-labeled fluorogenic probe (Biosearch Technologies, Novato, Calif.), and 12.5 μl of TaqMan Universal PCR master mix (Applied Biosystems, Foster City, Calif.). PCR thermocycling parameters were 50° C. for 2 min, 95° C. for 10 min, and 45 cycles of 95° C. for 15 s and 60° C. for 1 min. All samples were analyzed for β-actin expression in the same run. Quantitative expression values were extrapolated from standard curves for the gene of interest with 10-fold dilutions of cDNA (in triplicate). Each sample was normalized to β-actin, triplicates were averaged, and relative mRNA levels were determined. […]
For quantification of mouse Cyp26 mRNA levels, each amplification mixture (25 μ) contained 62.5 ng of cDNA, 100 nM concentrations of reverse and forward primers, and 2.5 μl of 10× SYBR Green PCR master mix (Perkin-Elmer Life Sciences, Boston, Mass.). Quantitative expression values were extrapolated from standard curves for Cyp26 expression with 10-fold dilutions of cDNA (in triplicate). Each sample was normalized to β-actin that was deduced from TaqMan assays, triplicate results were averaged, and relative Cyp26 mRNA levels were determined. […]

The test system of assay [3] is ABCA1, ABCG1, SREBP-1c, apoE, LXRα, Cyp26 mRNA. The assay can be described thus: Quantitative real-time PCR of LXR target genes and Cyp26 in mouse peritoneal macrophages. Format: cell-based. As for the experimental part:
Total RNA was isolated from mouse peritoneal macrophages or ˜50 mg of mouse liver tissue by using the RNeasy Mini kit (Qiagen, Valencia, Calif.) or RNA-Bee reagent (Tel-Test, Inc., Friendswood, Tex.), respectively, according to the manufacturer's protocol. Real-time quantitative PCR assays were performed by using the Mx4000 Quantitative PCR System (Stratagene, La Jolla, Calif.). Briefly, 5 μg of total RNA was treated with RNase-free DNase I (Ambion, Austin, Tex.), and first-strand cDNA was synthesized with oligo(dT)12-18 by using a Superscript II RNase H^− reverse transcriptase reagent kit (Invitrogen) according to the manufacturer's protocol. For quantification of mouse ABCA1, ABCG1, SREBP-1c, LXRα, ApoE, and fatty acid synthase (FAS) mRNA levels, each amplification mixture contained 62.5 ng of cDNA, appropriate concentrations of forward and reverse primers and of dual-labeled fluorogenic probe (Biosearch Technologies, Novato, Calif.), and 12.5 μl of TaqMan Universal PCR master mix (Applied Biosystems, Foster City, Calif.). PCR thermocycling parameters were 50° C. for 2 min, 95° C. for 10 min, and 45 cycles of 95° C. for 15 s and 60° C. for 1 min. All samples were analyzed for β-actin expression in the same run. Quantitative expression values were extrapolated from standard curves for the gene of interest with 10-fold dilutions of cDNA (in triplicate). Each sample was normalized to β-actin, triplicates were averaged, and relative mRNA levels were determined. The following mouse primers and probes were used: mouse ABCA1 (mABCA1) forward (F) (5′-[…]-3′), mABCA1 reverse (R) (5′-[…]-3′), and mABCA1 TaqMan probe (5′-FAM-[…]-BHQ-3′); mABCG1 F (5′-[…]-3′), mABCG1 R (5′-[…]-3′), and mABCG1 TaqMan probe (5′-FAM-[…]-BHQ-3′); mSREBP-1c F (5′-[…]-3′), mSREBP-1c R (5′-[…]-3′), and mSREBP-1c TaqMan probe (5′-FAM-[…]-BHQ-3′); mApoE F (5′-[…]-3′), mApoE R (5′-[…]-3′), and mApoE TaqMan probe (5′-FAM-[…]-BHQ-3′); mLXRα F (5′-[…]-3′), mLXRα R (5′-[…]-3′), and mLXRα TaqMan probe (5′-FAM-[…]-BHQ-3′); mFAS F (5′-[…]-3′), mFAS R (5′-[…]-3′), and mFAS TaqMan probe (5′-FAM-[…]-BHQ-3′); and mβ-actin F (5′-[…]-3′), mβ-actin R (5′-[…]-3′), and mβ-actin TaqMan probe (5′-JOE-[…]-BHQ-3′).
as §1

A further assay relates to ABCA1 protein. The assay can be described thus: Western blot of ABCA1 protein in RARγ−/− mouse peritoneal macrophages. Format: cell-based. To be noted: 5 μM, 24 h. The protocol: Protein extracts from macrophages were prepared by lysing the cells in modified radioimmunoprecipitation assay buffer (50 mM Tris, 150 mM NaCl, 1 mM EDTA. 1% Triton X-100) containing a protease inhibitor cocktail (Complete EDTA Free; Roche). Protein content in the extracts was determined by using the DC protein assay (Bio-Rad, Hercules, Calif.). Equal amounts of protein (40 to 50 μg) were separated by electrophoresis with 4 to 15% acrylamide gradient gels (Bio-Rad) and then transferred to nitrocellulose membrane (Trans-Blot Transfer Medium; Bio-Rad). Membranes were probed with anti-ABCA1 antibody (Novus Biologicals, Littleton, Colo.) and anti-β-actin antibody (Sigma) according to the manufacturer's recommendations. Immunoblots were developed by using a chemiluminescent detection system (Super Signal West Pico chemiluminescent substrate; Pierce, Rockford, Ill.).

[4] abbreviates: mouse peritoneal macrophages, TTNPB 1 μM, 24 h.

For the compound `C/C(=C\c1ccc(C(=O)O)cc1)c1ccc2c(c1)C(C)(C)CCC2(C)C` [TTNPB, 4-[E-2-5,6.7.8-tetrahydro-5,5,8,8-tetramethyl-2-naphthalenyl-l-propenyl]benzoic acid], the “decrease of nuclear RARα” value in the assay on RARα protein is around 2 fold. For the same compound, in assay [1], the “Cyp26 mRNA increase” value is listed as around 6 fold and the “induction of ABCA1 or other LXR target genes, compared with ATRA” value is reported as “much less effective than ATRA”. In addition, in assay [2], the “Cyp26 mRNA in liver” value was “markedly induced”, the “FAS gene expression in liver” value is on record as “no response”, the “hepatic ABCA1 mRNA” value is on record as “not induced” and the “hepatic SREBP-1c mRNA” value was “repressed”. Also, in assay [3] (setting [4]), the “ABCA1 mRNA” value was “induction of macrophage ABCA1 mRNA” and the “SREBP-1c mRNA” value is recorded as “no effect”. Also, in assay [3] (murine macrophages), the “Cyp26 mRNA increase” value worked out at 30 fold. The ABCA1 protein induction result in the assay with ABCA1 protein was “still induced”.

The values are drawn from US20060009520A1, “Retinoid-based methods for altering macrophage cholesterol” (priority 2004, published 2006).
